In assay [1] the target is T1, delta receptor (Mus musculus, UniProt P32300). In words: Mouse vas deferens (MVD) bioassay, delta agonist/antagonist studies, electrically stimulated tissue. The class given is cell-based, mouse (CD-1). Also noted: Vasa deferentia were obtained from CD-1 mice; from tissue; host or cells: vas deferens of CD-1 mice. The method, then:
Vasa deferentia were obtained from CD-1 mice and were suspended in a Mg^2+ -free Krebs buffer at 37° C. For the delta agonist/antagonist studies, the tissues were electrically stimulated with pulse trains having the following parameters: train duration 50 ms, stimulus duration 2 ms, frequency of stimuli 50 Hz, maximal voltage 60-70 V, train frequency 0.1 Hz. Concentration response curves for each compounds were constructed cumulatively. Linear regression analysis and IC50 concentrations were evaluated according to Tallarida and Murray (Manual of Pharmacological Calculations, Springer Verlag N.Y., 1981).

Assay [2] concerns the target T1, delta receptor. Briefly: Opioid radioligand binding assay, delta ([3H]-DADLE in presence of unlabelled DAMGO), mouse brain membranes. Also noted: Mouse brain membranes were prepared as described by Kosterlitz; from tissue; host or cells: mouse brain membranes. The note with it: [3H]-DADLE 1.3 nM, 40 nM DAMGO. The method, then: (§1) Mouse brain membranes were prepared as described by Kosterlitz (Br. J. Pharmacol., 1981, 73, 939.). […] The binding of the mu ligand [^3 H]-DAMGO (Eur. J. Pharmacol., 1989, 166, 213) and of the kappa ligand [^3 H]-U69593 (Excerpta Medica, 1990, 211) were carried out at 0.5 nM. The non-specific binding was determined in presence of naloxone (10 μM) for all tritiated ligands. […] The IC50 obtained were used to calculate the inhibitory constants (Ki) accordingly to the Cheng and Prusoff relation (Biochem. Pharmacol., 1973, 22, 3099).

The target in a further assay is T2, kappa opioid receptor (Mus musculus, UniProt P33534).
T2 construct: Mouse brain membranes were prepared as described by Kosterlitz; from tissue; host or cells: mouse brain membranes
T2 sequence (P33534 whole entry): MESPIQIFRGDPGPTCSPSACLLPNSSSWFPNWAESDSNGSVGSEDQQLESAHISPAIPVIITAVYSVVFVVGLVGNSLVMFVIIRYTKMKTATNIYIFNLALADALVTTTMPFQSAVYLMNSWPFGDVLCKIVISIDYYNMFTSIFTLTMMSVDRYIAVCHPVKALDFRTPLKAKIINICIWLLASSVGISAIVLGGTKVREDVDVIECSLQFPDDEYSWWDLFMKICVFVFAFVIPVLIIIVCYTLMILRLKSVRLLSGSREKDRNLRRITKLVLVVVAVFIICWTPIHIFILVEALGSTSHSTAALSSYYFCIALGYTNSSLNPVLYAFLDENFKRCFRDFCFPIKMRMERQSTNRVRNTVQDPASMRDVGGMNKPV
Briefly: Opioid radioligand binding assay, kappa ([3H]-U69593), mouse brain membranes. The note with it: ratio of Ki, kappa ([3H]-U69593) vs delta. The method, then: as §1

The target of a further assay is T3, mu opioid receptor (Mus musculus, UniProt P42866).
T3 construct: Mouse brain membranes were prepared as described by Kosterlitz; from tissue; host or cells: mouse brain membranes
T3 sequence (P42866 whole entry): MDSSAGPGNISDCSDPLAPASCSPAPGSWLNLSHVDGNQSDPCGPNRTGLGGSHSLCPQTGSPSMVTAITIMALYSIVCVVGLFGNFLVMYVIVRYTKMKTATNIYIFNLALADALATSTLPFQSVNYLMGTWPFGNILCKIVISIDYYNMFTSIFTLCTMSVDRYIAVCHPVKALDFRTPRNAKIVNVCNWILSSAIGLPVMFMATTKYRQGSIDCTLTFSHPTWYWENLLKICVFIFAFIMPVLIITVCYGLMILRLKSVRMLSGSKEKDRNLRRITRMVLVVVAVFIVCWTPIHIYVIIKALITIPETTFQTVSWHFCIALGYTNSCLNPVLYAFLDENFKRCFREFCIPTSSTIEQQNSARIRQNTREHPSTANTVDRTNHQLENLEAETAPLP
In words: Opioid radioligand binding assay, mu ([3H]-DAMGO), mouse brain membranes. The note with it: ratio of Ki, mu ([3H]-DAMGO) vs delta. The method, then:
as §1

SMILES strings stand for the structures.

T1 sequence (P32300 whole entry): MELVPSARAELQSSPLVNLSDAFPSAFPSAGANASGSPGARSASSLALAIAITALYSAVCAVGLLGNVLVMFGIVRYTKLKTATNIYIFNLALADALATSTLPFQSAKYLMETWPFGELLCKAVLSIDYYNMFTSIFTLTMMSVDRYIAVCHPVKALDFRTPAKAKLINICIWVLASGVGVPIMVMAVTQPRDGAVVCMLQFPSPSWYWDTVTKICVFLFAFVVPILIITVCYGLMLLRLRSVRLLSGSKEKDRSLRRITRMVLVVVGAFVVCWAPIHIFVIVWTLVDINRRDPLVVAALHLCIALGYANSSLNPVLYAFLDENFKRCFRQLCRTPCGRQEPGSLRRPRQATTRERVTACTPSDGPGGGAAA

Take `CCN(CC)C(=O)c1[nH]c2c(c1C)C[C@@H]1CN(C)CC[C@@]1(c1cccc(O)c1)C2.Cl` (racemic) [Example 10, (±)-trans-2-Diethylaminocarbonyl-3,6-dimethyl-8a-(3-hydroxyphenyl)-4,4a,5,6,7,8,8a,9-octahydro-1H-pyrrolo[2,3-g]isoquinoline hydrochloride]: on delta receptor [1], the Kb amounted to 7 nM. The Ki at delta receptor [2] turned out to be 2.15 nM. In addition, the “Ki kappa/Ki delta” value at kappa opioid receptor stood at 403. Besides, on mu opioid receptor, the “Ki mu/Ki delta” value amounted to 45.

In the case of `CCN1CC[C@@]2(c3cccc(O)c3)Cc3[nH]c(C(=O)N(CC)CC)c(C)c3C[C@@H]2C1.Cl` (single isomer, unassigned) [Example 34, (-)-trans-2-Diethylaminocarbonyl-6-ethyl-8a-(3-hydroxyphenyl)-3-methyl-4,4a,5,6,7,8,8a,9-octahydro-1H-pyrrolo[2,3-g]isoquinoline hydrochloride], the IC50 on delta receptor [1] (mouse vas deferens, delta agonist study, read-out: IC50 in the MVD preparation (delta agonists)) came to 26 nM. In addition, the Ki on delta receptor [2] is 0.73 nM. On kappa opioid receptor, the “Ki kappa/Ki delta” value was 1105. On mu opioid receptor, the “Ki mu/Ki delta” value is given as 110.

What is called Kb is the affinity of an antagonist, worked out from how it opposes an agonist. For orientation: Ki means a measure of affinity in units of concentration, obtained from inhibition or displacement.

The record behind these values is patent publication US5731322A, “Octahydro-1H-pyrrolo[3,2-g]and [2,3-g]isoquinoline derivatives” (SmithKline Beecham S.p.A., priority 1993, dated 1998).
